Experimental data reported in patent US7041698B2, “Hepatitis C virus inhibitors” (Bristol-Myers Squibb Company, priority 2002, dated 2006).
Read-outs that look alike come from different tables or passages of the source.

Tests used:
[1] = biological target: T1, HCV NS3/4A protease complex (UniProt P27958, C1454S/C1711G, species not given); assay: Recombinant HCV NS3/4A protease complex FRET peptide assay (strain not stated); format: biochemical
T1 construct: fused on or other part: Three-lysine solubilising tail at the C-terminus of NS4A
Description: Recombinant HCV NS3/4A Protease Complex FRET Peptide Assay
The purpose of this in vitro assay was to measure the inhibition of HCV NS3 protease complexes, derived from the BMS, H77C or J416S strains, as described below, by compounds of the present invention. This assay provides an indication of how effective compounds of the present invention would be in inhibiting HCV proteolytic activity.
Serum from an HCV-infected patient was obtained from Dr. T. Wright, San Francisco Hospital. An engineered full-length cDNA (compliment deoxyribonucleic acid) template of the HCV genome (BMS strain) was constructed from DNA fragments obtained by reverse transcription-PCR (RT-PCR) of serum RNA (ribonucleic acid) and using primers selected on the basis of homology between other genotype 1a strains. From the determination of the entire genome sequence, a genotype 1a was assigned to the HCV isolate according to the classification of Simmonds et al. (See P Simmonds, K A Rose, S Graham, S W Chan, F McOmish, B C Dow, E A Follett, P L Yap and H Marsden, J. Clin. Microbiol., 31(6), 1493–1503 (1993)). […] The infectious clones, H77C (1a genotype) and J4L6S (1b genotype) were obtained from R. Purcell (NIH) and the sequences are published in Genbank (AAB67036, see Yanagi, M., Purcell, R. H., Emerson, S. U. and Bukh, J. Proc. Natl. Acad. Sci. U.S.A. 94(16),8738–8743 (1997); AF054247, see Yanagi, M., St Claire, M., Shapiro, M., Emerson, S. U., Purcell, R. H. and Bukh, J, Virology 244 (1), 161–172. (1998)).
The BMS, H77C and J4L6S strains were used for production of recombinant NS3/4A protease complexes. DNA encoding the recombinant HCV NS3/4A protease complex (amino acids 1027 to 1711) for these strains were manipulated as described by P. Gallinari et al. (see Gallinari P, Paolini C, Brennan D, Nardi C, Steinkuhler C, De Francesco R. Biochemistry. 38(17):5620–32, (1999)). Briefly, a three-lysine solubilizing tail was added at the 3′-end of the NS4A coding region. The cysteine in the P1 position of the NS4A-NS4B cleavage site (amino acid 1711) was changed to a glycine to avoid the proteolytic cleavage of the lysine tag. Furthermore, a cysteine to serine mutation was introduced by PCR at amino acid position 1454 to prevent the autolytic cleavage in the NS3 helicase domain. The variant DNA fragment was cloned in the pET21b bacterial expression vector (Novagen) and the NS3/4A complex was expressed in Escherichia. coli strain BL21 (DE3) (Invitrogen) following the protocol described by P. Gallinari et al. (see Gallinari P, Brennan D, Nardi C, Brunetti M, Tomei L, Steinkuhler C, De Francesco R., J. Virol. 72(8):6758–69 (1998)) with modifications. Briefly, NS3/4A expression was induced with 0.5 mM Isopropyl β-D-1-thiogalactopyranoside (IPTG) for 22 hr at 20° C. A typical fermentation (10L) yielded approximately 80 g of wet cell paste. The cells were resuspended in lysis buffer (10 mL/g) consisting of 25 mM N-(2-Hydroxyethyl)Piperazine-N′-(2-Ethane Sulfonic acid) (HEPES), pH7.5, 20% glycerol, 500 mM Sodium Chloride (NaCl), 0.5% Triton-X100, 1 ug/ml lysozyme, 5 mM Magnesium Chloride (MgCl2), lug/ml Dnasel, 5 mM β-Mercaptoethanol (βME), Protease inhibitor—Ethylenediamine Tetraacetic acid (EDTA) free (Roche), homogenized and incubated for 20 mins at 4° C. The homogenate was sonicated and clarified by ultra-centrifugation at 235000 g for 1 hr at 4° C. Imidazole was added to the supernatant to a final concentration of 15 mM and the pH adjusted to 8.0. The crude protein extract was loaded on a Nickel-Nitrilotriacetic acid (Ni-NTA) column pre-equilibrated with buffer B (25 mM HEPES, pH 8.0, 20% glycerol, 500 mM NaCl, 0.5% Triton-X100, 15 mM imidazole, 5 mM βME). The sample was loaded at a flow rate of 1 mL/min. The column was washed with 15 column volumes of buffer C (same as buffer B except with 0.2% Triton-X100). The protein was eluted with 5 column volumes of buffer D (same as buffer C except with 200 mM Imidazole). […]

[2] = test system: HCV replicon in Huh7 cells; assay: HCV replicon cell-based assay; set-up: species or system HCV strain 1B; settings: Hepatitis C virus, Huh-7, 96 h, HCV replicon, 4 days, read-out: EC50 range
Description: HCV Replicon Cell-based Assay
An HCV replicon whole cell system was established as described by Lohmann V, Komer F, Koch J, Herian U, Theilmann L, Bartenschlager R., Science 285(5424):110–3 (1999). This system enabled us to evaluate the effects of our HCV Protease compounds on HCV RNA replication. Briefly, using the HCV strain 1B sequence described in the Lohmann paper (Assession number:AJ238799), an HCV cDNA was generated encoding the 5′ internal ribosome entry site (IRES), the neomycin resistance gene, the EMCV (encephalomyocarditis viurs)-IRES and the HCV nonstructural proteins, NS3-NS5B, and 3′ non-translated region (NTR). In vitro transcripts of the cDNA were transfected into the human hepatoma cell line, Huh7. […] Resulting cell lines were characterized for positive and negative strand RNA production and protein production over time.
Huh7 cells, constitutively expressing the HCV replicon, were grown in Dulbecco's Modified Eagle Media (DMEM) containing 10% Fetal calf serum (FCS) and 1 mg/ml G418 (Gibco-BRL). Cells were seeded the night before (1.5×10^4 cells/well) in 96-well tissue-culture sterile plates. Compound and no compound controls were prepared in DMEM containing 4% FCS, 1:100 Penicillin/Streptomysin, 1:100 L-glutamine and 5% DMSO in the dilution plate (0.5% DMSO final concentration in the assay). Compound/DMSO mixes were added to the cells and incubated for 4 days at 37° C. After 4 days, plates were rinsed thoroughly with Phosphate-Buffered Saline (PBS) (3 times 150 μl). The cells were lysed with 25 μl of a lysis assay reagent containing the FRET peptide (RET S1, as described for the in vitro enzyme assay). The lysis assay reagent was made from 5× cell Luciferase cell culture lysis reagent (Promega #E153A) diluted to 1× with distilled water, NaCl added to 150 mM final, the FRET peptide diluted to 10 μM final from a 2 mM stock in 100% DMSO. The plate was then placed into the Cytofluor 4000 instrument which had been set to 340 nm excitation/490 emission, automatic mode for 21 cycles and the plate read in a kinetic mode. EC50 determinations were carried out as described for the IC50 determinations.
As a secondary assay, EC50 determinations from the replicon FRET assay were confirmed in a quantitative RNA assay. Cells were lyzed using the Rneasy kit (Qiagen). Purified total RNA was normalized using RiboGreen (Jones L J, Yue S T, Cheung C Y, Singer V L, Anal. Chem., 265(2):368–74 (1998)) and relative quantitation of HCV RNA expression assessed using the Taqman procedure (Kolykhalov A A, Mihalik K, Feinstone S M, Rice C M, Journal of Virology 74, 2046–2051 (2000)) and the Platinum Quantitative RT-PCR Thermoscript One-Step kit (Invitrogen cat # 11731-015). Briefly, RNA made to a volume of 5 μl (<1 ng) was added to a 20 μl Ready-Mix containing the following: 1.25× Thermoscript reaction mix (containing Magnesium Sulfate and 2-deoxynucleoside 5′-triphosphates (dNTPs)), 3 mM dNTPs, 200 nM forward primer (sequence: 5′-[…]-3′), 600 nM reverse primer (5′-[…]-3′), 100 nM probe (5′-6-FAM-[…]-BHQ-1-3′)(FAM: Fluorescein-aminohexyl amidite; BHQ: Black Hole Quencher), 1 μM Rbx reference dye (Invitrogen cat # 12223-012) and Thermoscript Plus Platinum Taq polymerase mixture. All primers were designed with ABI Prism 7700 software and obtained from Biosearch Technologies, Novato, Calif. Samples containing known concentrations of HCV RNA transcript were run as standards. Using the following cycling protocol (50° C., 30 min; 95° C., 5 min; 40 cycles of 95° C., 15 sec, 60° C., 1 min), HCV RNA expression was quantitated as described in the Perkin Elmer manual using the ABI Prism 7700 Sequence Detector.
The luciferase reporter assay was also used to confirm compound potency in the replicon. Utilization of a replicon luciferase reporter assay was first described by Krieger et al (Krieger N, Lohmann V, and Bartenschlager R, J. Virol. 75(10):4614–4624 (2001)). […]

[3] = HCV NS3/4A protease enzyme assay, read-out: IC50 range

Structure (SMILES)	IC50 [1, 3] [nM]	EC50 [2] [nM]	IC50 ([1]; read-out: IC50 range, HCV NS3/4A protease enzyme assay) [nM]
C=CC1C[C@]1(NC(=O)[C@@H]1C[C@@H](OC(=O)Nc2ccccc2-c2nnc[nH]2)CN1C(=O)[C@@H](NC(=O)OC(C)(C)C)C(C)(C)C)C(=O)NS(=O)(=O)C1CC1 (stereo partly drawn) [Compound 88, BocNH-P3(t-BuGly)-P2(Hyp(O—CO(NH—(2-(4H-[1,2,4]Triazol-3-yl)-phenyl))))-P1(1R,2S VinylAcca)—CONHSO2Cyclopropane]	< 100	> 10000	
C=CC1C[C@]1(NC(=O)[C@@H]1C[C@@H](OC(=O)NC2CCCCC2)CN1C(=O)[C@@H](NC(=O)OC(C)(C)C)C(C)(C)C)C(=O)NS(=O)(=O)C1CC1 (stereo partly drawn) [Compound 6, BocNH-P3(t-BuGly)-P2(Hyp(O—CO(NH-cyclohexyl)))-P1(1R,2S VinylAcca)—CONHSO2Cyclopropane]	< 100	1000 to 10000	
C=CC1C[C@]1(NC(=O)[C@@H]1C[C@@H](OC(=O)Nc2cc(Cl)ccc2OC)CN1C(=O)[C@@H](NC(=O)OC(C)(C)C)C(C)(C)C)C(=O)NS(=O)(=O)C1CC1 (stereo partly drawn) [Compound 9, BocNH-P3(t-BuGly)-P2(Hyp(O—CO(NH—(5-chloro-2-methoxy-phenyl))))-P1(1R,2S VinylAcca)—CONHSO2Cyclopropane]	< 100	100 to 1000	
C=CC1C[C@]1(NC(=O)[C@@H]1C[C@@H](OC(=O)n2c3ccccc3c3ccccc32)CN1C(=O)[C@@H](NC(=O)OC(C)(C)C)C(C)(C)C)C(=O)NS(=O)(=O)C1CC1 (stereo partly drawn) [Compound 32, BocNH-P3(t-BuGly)-P2(Hyp(O—CO(N-(9-carbazolyl))))-P1(1R,2S VinylAcca)—CONHSO2Cyclopropane]	< 100	< 100	
C=CC1C[C@]1(NC(=O)[C@@H]1C[C@@H](OC(=O)Nc2ccccc2-n2nccn2)CN1C(=O)[C@@H](NC(=O)OC(C)(C)C)C(C)(C)C)C(=O)NS(=O)(=O)C1CC1 (stereo partly drawn) [Compound 93, BocNH-P3(t-BuGly)-P2(Hyp(O—CO(NH—(2-[1,2,3]Triazol-2-yl-phenyl))))-P1(1R,2S VinylAcca)—CONHSO2Cyclopropane]	< 100	100 to 1000	
C=CC1C[C@]1(NC(=O)[C@@H]1C[C@@H](OC(=O)Nc2ccccc2CC)CN1C(=O)[C@@H](NC(=O)OC(C)(C)C)C(C)(C)C)C(=O)NS(=O)(=O)C1CC1 (stereo partly drawn) [Compound 59, BocNH-P3(t-BuGly)-P2(Hyp(O—CO(NH—(2-ethyl-phenyl))))-P1(1R,2S VinylAcca)—CONHSO2Cyclopropane]	100 to 1000	1000 to 10000	
C=CC1C[C@]1(NC(=O)[C@@H]1C[C@@H](OC(=O)Nc2cc(OC)ccc2-n2cccn2)CN1C(=O)[C@@H](NC(=O)OC(C)(C)C)C(C)(C)C)C(=O)NS(=O)(=O)C1CC1 (stereo partly drawn) [Compound 95, BocNH-P3(t-BuGly)-P2(Hyp(O—CO(NH—(5-Methoxy-2-pyrazol-1-yl-phenyl))))-P1(1R,2S VinylAcca)—CONHSO2Cyclopropane]	< 100	100 to 1000	
C=CC1C[C@]1(NC(=O)[C@@H]1C[C@@H](OC(=O)Nc2c(C)cccc2Cl)CN1C(=O)[C@@H](NC(=O)OC(C)(C)C)C(C)(C)C)C(=O)NS(=O)(=O)C1CC1 (stereo partly drawn) [Compound 63, BocNH-P3(t-BuGly)-P2(Hyp(O—CO(NH—(2-chloro-6-methyl))))-P1(1R,2S VinylAcca)—CONHSO2Cyclopropane]	100 to 1000	1000 to 10000	
C=CC1C[C@]1(NC(=O)[C@@H]1C[C@@H](OC(=O)Nc2cc(C)cc(C)c2)CN1C(=O)[C@@H](NC(=O)OC(C)(C)C)C(C)(C)C)C(=O)NS(=O)(=O)C1CC1 (stereo partly drawn) [Compound 50, BocNH-P3(t-BuGly)-P2(Hyp(O—CO(NH—(3,5-dimethyl-phenyl))))-P1(1R,2S VinylAcca)—CONHSO2Cyclopropane]	< 100	1000 to 10000	
C=CC1C[C@]1(NC(=O)[C@@H]1C[C@@H](OC(=O)N(C)C)CN1C(=O)[C@@H](NC(=O)OC(C)(C)C)C(C)(C)C)C(=O)NS(=O)(=O)C1CC1 (stereo partly drawn) [Compound 43, BocNH-P3(t-BuGly)-P2(Hyp(O—CO(N,N-dimethyl)))-P1(1R,2S VinylAcca)—CONHSO2Cyclopropane]		> 10000	100 to 1000
